Source: ChEMBL document CHEMBL3390848, “Affinity selection and sequence-activity relationships of HIV-1 membrane fusion inhibitors directed at the drug-resistant variants” (Medchemcomm, 2010)
Residues, ends and D or L forms follow the SMILES beside them.

Experiments:
[1] = test system: Human immunodeficiency virus 1; experiment: Binding affinity to HIV1 His-tagged N-terminal heptad repeat of envelope glycoprotein gp41 assessed as recovery of N36-drug complex at 10 uM after 2 hrs by LC-MS analysis
[2] = test system: Human immunodeficiency virus 1; experiment: Binding affinity to HIV1 His-tagged N-terminal heptad repeat of envelope glycoprotein gp41 assessed as recovery of N36-drug complex at 6 uM after 2 hrs by LC-MS analysis
[3] = test system: Human immunodeficiency virus 1; experiment: Binding affinity to HIV1 His-tagged N-terminal heptad repeat of envelope glycoprotein gp41 assessed as recovery of N36-drug complex at 1 uM after 2 hrs by LC-MS analysis
[4] = test system: Human immunodeficiency virus 1; experiment: Binding affinity to HIV1 His-tagged N-terminal heptad repeat of envelope glycoprotein gp41 assessed as recovery of N36-drug complex at 0.6 uM after 2 hrs by LC-MS analysis
[5] = test system: Human immunodeficiency virus 1; experiment: Antiviral activity against HIV1 NL4-3 harboring gp41 D36G mutant infected in human HeLa cells expressing CD4-LTR-beta-gal assessed as inhibition of viral replication after 48 hrs by MAGI assay; format: functional, organism-based
[6] = test system: Human immunodeficiency virus 1; experiment: Thermal stability of HIV1 envelope glycoprotein gp41 His-tagged N-terminal heptad repeat N36-drug complex assessed as thermal unfolding transition state by measuring molar ellipticity at 4 to 90 degC by circular dichroic spectra analysis
[7] = test system: Envelope glycoprotein gp160 (Human immunodeficiency virus 1), Q72502 [V38A]; experiment: Binding affinity to HIV1 His-tagged N-terminal heptad repeat of envelope glycoprotein gp41 assessed as recovery of N36 V38A mutant-drug complex after 2 hrs by LC-MS analysis; design: concentration or dose not given beside the values
[8] = test system: Human immunodeficiency virus 1; experiment: Binding affinity to HIV1 His-tagged N-terminal heptad repeat of envelope glycoprotein gp41 assessed as recovery of N36 N43D mutant-drug complex after 2 hrs by LC-MS analysis; design: concentration or dose not given beside the values
[9] = test system: Envelope glycoprotein gp160 (Human immunodeficiency virus 1), Q72502 [V38A]; experiment: Thermal stability of HIV1 envelope glycoprotein gp41 His-tagged N-terminal heptad repeat N36 V38A mutant-drug complex assessed as thermal unfolding transition state by measuring molar ellipticity at 4 to 90 degC by circular dichroic spectra analysis
[10] = test system: Human immunodeficiency virus 1; experiment: Thermal stability of HIV1 envelope glycoprotein gp41 His-tagged N-terminal heptad repeat N36 N43D mutant-drug complex assessed as thermal unfolding transition state by measuring molar ellipticity at 4 to 90 degC by circular dichroic spectra analysis
[11] = test system: Human immunodeficiency virus 1; experiment: Binding affinity to HIV1 His-tagged N-terminal heptad repeat of envelope glycoprotein gp41 assessed as recovery of N54-drug complex after 2 hrs by LC-MS analysis; design: concentration or dose not given beside the values
[12] = test system: Human immunodeficiency virus 1; experiment: Thermal stability of HIV1 envelope glycoprotein gp41 His-tagged N-terminal heptad repeat N54-drug complex assessed as thermal unfolding transition state by measuring molar ellipticity at 4 to 90 degC by circular dichroic spectra analysis
[13] = test system: Envelope glycoprotein gp160 (Human immunodeficiency virus 1), Q72502 [V38A]; experiment: Binding affinity to HIV1 His-tagged N-terminal heptad repeat of envelope glycoprotein gp41 assessed as recovery of N54 V38A mutant-drug complex after 2 hrs by LC-MS analysis; design: concentration or dose not given beside the values
[14] = test system: Human immunodeficiency virus 1; experiment: Binding affinity to HIV1 His-tagged N-terminal heptad repeat of envelope glycoprotein gp41 assessed as recovery of N54 N43D mutant-drug complex after 2 hrs by LC-MS analysis; design: concentration or dose not given beside the values
[15] = test system: Envelope glycoprotein gp160 (Human immunodeficiency virus 1), Q72502 [V38A]; experiment: Thermal stability of HIV1 envelope glycoprotein gp41 His-tagged N-terminal heptad repeat N54 V38A mutant-drug complex assessed as thermal unfolding transition state by measuring molar ellipticity at 4 to 90 degC by circular dichroic spectra analysis
[16] = test system: Human immunodeficiency virus 1; experiment: Thermal stability of HIV1 envelope glycoprotein gp41 His-tagged N-terminal heptad repeat N54 N43D mutant-drug complex assessed as thermal unfolding transition state by measuring molar ellipticity at 4 to 90 degC by circular dichroic spectra analysis

Compound | Activity [1] | Activity [2] | Activity [3] | Activity [4] | EC50 [5] | Tm [6] | Activity [7] | Activity [8] | Tm [9] | Tm [10] | Activity [11] | Tm [12] | Activity [13] | Activity [14] | Tm [15] | Tm [16]
CC[C@H](C)[C@H](NC(=O)[C@H](CC(C)C)NC(=O)[C@H](CCC(=O)O)NC(=O)[C@H](CCC(=O)O)NC(=O)[C@@H](NC(=O)[C@H](CCCCN)NC(=O)[C@H](CCCCN)NC(=O)[C@@H](NC(=O)[C@H](Cc1ccc(O)cc1)NC(=O)[C@H](CCC(=O)O)NC(=O)[C@H](CCC(=O)O)NC(=O)[C@@H](NC(=O)[C@H](CCCCN)NC(=O)[C@H](CCCCN)NC(=O)[C@H](CC(=O)O)NC(=O)[C@H](Cc1c[nH]c2ccccc12)NC(=O)[C@H](CCC(=O)O)NC(=O)[C@H](CCC(=O)O)NC(=O)[C@H](Cc1c[nH]c2ccccc12)NC(C)=O)[C@@H](C)CC)[C@@H](C)O)[C@@H](C)CC)C(=O)N[C@@H](CCCCN)C(=O)N[C@@H](CCCCN)C(=O)N[C@@H](C)C(=O)N[C@@H](CCC(=O)O)C(=O)N[C@@H](CCC(=O)O)C(=O)N[C@@H](CCC(N)=O)C(=O)N[C@@H](CCC(N)=O)C(=O)N[C@@H](CCCCN)C(=O)N[C@@H](CCCCN)C(=O)N[C@@H](CC(N)=O)C(=O)N[C@@H](CCC(=O)O)C(=O)N[C@@H](CCC(=O)O)C(=O)N[C@@H](CCC(=O)O)C(=O)N[C@@H](CC(C)C)C(=O)N[C@@H](CCCCN)C(=O)N[C@@H](CCCCN)C(N)=O (Ac-WEEWDKKIEEYTKKIEELIKKAEEQQKKNEEELKK-NH2) | 30.7% | 22.5% | 11.5% | 5.3% | 0.2 nM | 86.4 °C | 11.4% | 12.9% | 76.1 °C | 74.4 °C |  |  |  |  |  | 
CC[C@H](C)[C@H](NC(=O)[C@H](CC(C)C)NC(=O)[C@H](CCC(=O)O)NC(=O)[C@H](CCC(=O)O)NC(=O)[C@@H](NC(=O)[C@H](CCCCN)NC(=O)[C@H](CCCCN)NC(=O)[C@@H](NC(=O)[C@H](Cc1ccc(O)cc1)NC(=O)[C@H](CCC(=O)O)NC(=O)[C@H](CCC(=O)O)NC(=O)[C@@H](NC(=O)[C@H](CCCCN)NC(=O)[C@H](CCCCN)NC(=O)[C@H](CC(=O)O)NC(=O)[C@H](Cc1c[nH]c2ccccc12)NC(=O)[C@H](CCC(=O)O)NC(=O)[C@H](CCC(=O)O)NC(=O)[C@H](Cc1c[nH]c2ccccc12)NC(C)=O)[C@@H](C)CC)[C@@H](C)O)[C@@H](C)CC)C(=O)N[C@@H](CCCCN)C(=O)N[C@@H](CCCCN)C(=O)N[C@@H](CC(C)C)C(=O)N[C@@H](CCC(=O)O)C(=O)N[C@@H](CCC(=O)O)C(=O)N[C@@H](CCC(N)=O)C(=O)N[C@@H](CCC(N)=O)C(=O)N[C@@H](CCCCN)C(=O)N[C@@H](CCCCN)C(=O)N[C@@H](CC(N)=O)C(=O)N[C@@H](CCC(=O)O)C(=O)N[C@@H](CCC(=O)O)C(=O)N[C@@H](CCC(=O)O)C(=O)N[C@@H](CC(C)C)C(=O)N[C@@H](CCCCN)C(=O)N[C@@H](CCCCN)C(N)=O (Ac-WEEWDKKIEEYTKKIEELIKKLEEQQKKNEEELKK-NH2) | 4.7% | 7.6% | 11.3% | 6.9% | 0.2 nM | 83.2 °C | 10.3% | 12.9% | 75 °C | 80 °C |  |  |  |  |  | 
CC[C@H](C)[C@H](NC(=O)[C@H](CCCCN)NC(=O)[C@H](CCCCN)NC(=O)[C@H](CC(=O)O)NC(=O)[C@H](Cc1c[nH]c2ccccc12)NC(=O)[C@H](CCC(=O)O)NC(=O)[C@H](CCC(=O)O)NC(=O)[C@H](Cc1c[nH]c2ccccc12)NC(C)=O)C(=O)N[C@@H](CCC(=O)O)C(=O)N[C@@H](CCC(=O)O)C(=O)N[C@@H](Cc1ccc(O)cc1)C(=O)N[C@H](C(=O)N[C@@H](CCCCN)C(=O)N[C@@H](CCCCN)C(=O)N[C@H](C(=O)N[C@@H](CCC(=O)O)C(=O)N[C@@H](CCC(=O)O)C(=O)N[C@@H](CC(C)C)C(=O)N[C@H](C(=O)N[C@@H](CCCCN)C(=O)N[C@@H](CCCCN)C(=O)N1CCC[C@H]1C(=O)N[C@@H](CCC(=O)O)C(=O)N[C@@H](CCC(=O)O)C(=O)N[C@@H](CCC(N)=O)C(=O)N[C@@H](CCC(N)=O)C(=O)N[C@@H](CCCCN)C(=O)N[C@@H](CCCCN)C(=O)N[C@@H](CC(N)=O)C(=O)N[C@@H](CCC(=O)O)C(=O)N[C@@H](CCC(=O)O)C(=O)N[C@@H](CCC(=O)O)C(=O)N[C@@H](CC(C)C)C(=O)N[C@@H](CCCCN)C(=O)N[C@@H](CCCCN)C(N)=O)[C@@H](C)CC)[C@@H](C)CC)[C@@H](C)O (Ac-WEEWDKKIEEYTKKIEELIKKPEEQQKKNEEELKK-NH2) | 0.4% | 0.2% | 0.1% | 4.5% | 35 nM | 56.1 °C | 0.4% | 0.3% | 56.3 °C | 55.6 °C |  |  |  |  |  | 
CC[C@H](C)[C@H](NC(=O)[C@H](CC(C)C)NC(=O)[C@H](CCC(=O)O)NC(=O)[C@H](CCC(=O)O)NC(=O)[C@@H](NC(=O)[C@H](CC(C)C)NC(=O)[C@H](CO)NC(=O)[C@@H](NC(=O)[C@H](Cc1ccc(O)cc1)NC(C)=O)[C@@H](C)O)[C@@H](C)CC)C(=O)N[C@@H](CCCCN)C(=O)N[C@@H](CCCCN)C(=O)N[C@H](C(=O)N[C@@H](CCC(=O)O)C(=O)N[C@@H](CCC(=O)O)C(=O)N[C@@H](CCC(N)=O)C(=O)N[C@@H](CCC(N)=O)C(=O)N[C@@H](CCCCN)C(=O)N[C@@H](CCCCN)C(=O)N[C@@H](CC(N)=O)C(=O)N[C@@H](CCC(=O)O)C(=O)N[C@@H](CCC(=O)O)C(=O)N[C@@H](CCC(=O)O)C(=O)N[C@@H](CC(C)C)C(=O)N[C@@H](CCCCN)C(=O)N[C@@H](CCCCN)C(=O)N[C@@H](CC(C)C)C(=O)N[C@@H](CCC(=O)O)C(=O)N[C@@H](CCC(=O)O)C(=O)N[C@@H](Cc1c[nH]c2ccccc12)C(=O)N[C@@H](C)C(=O)N[C@@H](CCCCN)C(=O)N[C@@H](CCCCN)C(=O)N[C@@H](Cc1c[nH]c2ccccc12)C(=O)N[C@@H](CC(N)=O)C(=O)N[C@@H](Cc1c[nH]c2ccccc12)C(=O)N[C@@H](Cc1ccccc1)C(N)=O)[C@@H](C)O (Ac-YTSLIEELIKKTEEQQKKNEEELKKLEEWAKKWNWF-NH2) |  |  |  |  | 0.4 nM |  |  |  |  |  | 10% | 75.9 °C | 8.1% | 6.1% | 57.8 °C | 62.4 °C
CC[C@H](C)[C@H](NC(=O)[C@H](CC(C)C)NC(=O)[C@H](CCC(=O)O)NC(=O)[C@H](CCC(=O)O)NC(=O)[C@@H](NC(=O)[C@H](CC(C)C)NC(=O)[C@H](CO)NC(=O)[C@@H](NC(=O)[C@H](Cc1ccc(O)cc1)NC(C)=O)[C@@H](C)O)[C@@H](C)CC)C(=O)N[C@@H](CCCCN)C(=O)N[C@@H](CCCCN)C(=O)N[C@@H](Cc1c[nH]c2ccccc12)C(=O)N[C@@H](CCC(=O)O)C(=O)N[C@@H](CCC(=O)O)C(=O)N[C@@H](CCC(N)=O)C(=O)N[C@@H](CCC(N)=O)C(=O)N[C@@H](CCCCN)C(=O)N[C@@H](CCCCN)C(=O)N[C@@H](CC(N)=O)C(=O)N[C@@H](CCC(=O)O)C(=O)N[C@@H](CCC(=O)O)C(=O)N[C@@H](CCC(=O)O)C(=O)N[C@@H](CC(C)C)C(=O)N[C@@H](CCCCN)C(=O)N[C@@H](CCCCN)C(=O)N[C@@H](CC(C)C)C(=O)N[C@@H](CCC(=O)O)C(=O)N[C@@H](CCC(=O)O)C(=O)N[C@@H](Cc1c[nH]c2ccccc12)C(=O)N[C@@H](C)C(=O)N[C@@H](CCCCN)C(=O)N[C@@H](CCCCN)C(=O)N[C@@H](Cc1c[nH]c2ccccc12)C(=O)N[C@@H](CC(N)=O)C(=O)N[C@@H](Cc1c[nH]c2ccccc12)C(=O)N[C@@H](Cc1ccccc1)C(N)=O (Ac-YTSLIEELIKKWEEQQKKNEEELKKLEEWAKKWNWF-NH2) |  |  |  |  | 20 nM |  |  |  |  |  | 5.2% | 62 °C | 7.7% | 7.6% | 53.2 °C | 61.4 °C
